Assays:
[1] = system: cDDP^R cell lines (2008-cp, A172-cp and SR2) and cDDP^S cell lines (2008, A172 and SCLC); experiment: Sensitization to platinum drugs in the absence or presence of copper chelator; assay type: cell-based, human; conditions: copper chelator treated cDDP^R cells with enhanced hCtr1 expression
Procedure: Furthermore, ^64Cu uptake and platinum (Pt) uptake, and sensitization to cisplatin and carboplatin in three pairs of cDDP^R cell lines (2008-cp, A172-cp and SR2) and cDDP^S cell lines (2008, A172 and SCLC) in the absence or presence of copper chelator (5 μmol/L of TM, 100 μmol/L of trientine or 100 μmol/L of D-pen) were evaluated.

ovarian cancer cells = experiment: Cisplatin cytotoxicity (IC50) in the presence or absence of copper histidine; assay type: cell-based; conditions: copper ions 3000 μM, 24 hours
Procedure: The cytotoxicity of shControl cells (shControl), IMP3 knockdown cells (shIMP3-268, shIMP3-596) and Lin28B knockdown cells (shLin28B-860, shLin28B-508) in response to cisplatin was determined using the WST-1 (TaKaRa) assay. In brief, 3×10^4 ovarian cancer cells/well were grown in 96-well plates overnight and treated with cisplatin at various concentrations in the presence or absence of copper ions (3000 μM) (Copper Histidine) for 24 hours. After incubation, the […] was used to determine the IC50 of cisplatin. Dose-inhibition curves and the IC50 of cisplatin were calculated for the different cell types using commercial software (SigmaPlot V10.0, Systat Software, Inc., Richmond, Calif., USA). A copper histidine solution was prepared. In brief, copper(II) chloride (0.106 g; Sigma-Aldrich) and L-histidine (0.244 g; Sigma-Aldrich) were dissolved in 90 ml of sterile 0.9% sodium chloride, titrated to a pH of […] to 7.40, and then filtered through a 0.22-μm filter before use.

Structure (SMILES)	sensitivity of cells to the platinum drug [1]	IC50 of cisplatin when combined with copper histidine (ovarian cancer cells; IMP3- or Lin28B-knockdown cells, p<0.05)	IC50 of cisplatin when combined with copper histidine (ovarian cancer cells; shControl cells)
N.N.O=C([O-])C1(C(=O)[O-])CCC1.[Pt+2] [carboplatin]	increased sensitivity	–	–
N.N.[Cl][Pt][Cl] [cisplatin]	higher increases	–	–
N[C@@H](Cc1c[nH]cn1)C(=O)O.[Cu] [copper histidine]	–	increased	no significant (NS) effect
O=C1[O][Pt]2([NH][C@@H]3CCCC[C@H]3[NH]2)[O]C1=O [oxaliplatin]	not	–	–

Reference: patent US9770462B2, “Method of treating ovarian, tubal and peritoneal cancer” (NATIONAL CHENG KUNG UNIVERSITY, priority 2015, dated 2017)
